Assay results published in ChEMBL document CHEMBL1671749, “blaROB-1 presence on pB1000 in Haemophilus influenzae is widespread, and variable cefaclor resistance is associated with altered penicillin-binding proteins” (2010).
Values after ≈ are worked out from the molar mass of the structure shown.

Legend:
Format in all cases: functional
Haemophilus influenzae [1] = assay: Antibacterial activity against ROB-1 and TEM-1 producing ICE- positive Haemophilus influenzae F54 harboring V489G, M503R, R517H, V547I and N569S mutations in PBP3 by Etest method
Haemophilus influenzae [2] = assay: Antibacterial activity against ROB-1 producing ICE- negative Haemophilus influenzae F50 by Etest method
Haemophilus influenzae [3] = assay: Antibacterial activity against ROB-1 and TEM-1 producing ICE- positive Haemophilus influenzae F47 by Etest method
Haemophilus influenzae [4] = assay: Antibacterial activity against ROB-1 producing ICE- negative Haemophilus influenzae H62 by broth microdilution method
Haemophilus influenzae [5] = assay: Antibacterial activity against ROB-1 producing ICE- positive Haemophilus influenzae F48 by broth microdilution method
Haemophilus influenzae [6] = assay: Antibacterial activity against ROB-1 producing ICE- negative Haemophilus influenzae F3 by Etest method
Haemophilus influenzae [7] = assay: Antibacterial activity against ROB-1 producing ICE- positive Haemophilus influenzae F45 harboring D350N, V547I and N569S mutations in PBP3 by Etest method
Haemophilus influenzae [8] = assay: Antibacterial activity against […] by broth microdilution method
Haemophilus influenzae [9] = assay: Antibacterial activity against ROB-1 producing ICE- negative Haemophilus influenzae F41 by Etest method
Haemophilus influenzae [10] = assay: Antibacterial activity against ROB-1 and TEM-1 producing ICE- positive Haemophilus influenzae F52 by Etest method
Haemophilus influenzae [11] = assay: Antibacterial activity against ROB-1 producing ICE- positive Haemophilus influenzae F47 by broth microdilution method
Haemophilus influenzae [12] = assay: Antibacterial activity against ROB-1 producing ICE- negative Haemophilus influenzae F3 by broth microdilution method
Haemophilus influenzae [13] = assay: Antibacterial activity against ROB-1 producing ICE- negative Haemophilus influenzae F41 by broth microdilution method
Haemophilus influenzae [14] = assay: Antibacterial activity against ROB-1 producing ICE- positive Haemophilus influenzae F45 harboring D350N, V547I and N569S mutations in PBP3 by broth microdilution method
Haemophilus influenzae [15] = assay: Antibacterial activity against […] by Etest method
Haemophilus influenzae [16] = assay: Antibacterial activity against ROB-1 producing ICE- positive Haemophilus influenzae F49 harboring D350N, V547I and N569S mutations in PBP3 by broth microdilution method
Haemophilus influenzae [17] = assay: Antibacterial activity against ROB-1 producing ICE- positive Haemophilus influenzae F52 by broth microdilution method
Haemophilus influenzae [18] = assay: Antibacterial activity against ROB-1 producing ICE- negative Haemophilus influenzae Rd transformant harboring plasmid PB1000 by Etest method
Haemophilus influenzae [19] = assay: Antibacterial activity against ROB-1 producing ICE- negative Haemophilus influenzae H23 by broth microdilution method
Haemophilus influenzae [20] = assay: Antibacterial activity against ROB-1 producing ICE- negative Haemophilus influenzae Rd transformant harboring plasmid PB1000 by broth microdilution method
Haemophilus influenzae [21] = assay: Antibacterial activity against ROB-1 and TEM-1 producing ICE- positive Haemophilus influenzae F48 by Etest method
Haemophilus influenzae [22] = assay: Antibacterial activity against ROB-1 producing ICE- negative Haemophilus influenzae H62 by Etest method
Haemophilus influenzae [23] = assay: Antibacterial activity against ROB-1 producing ICE- positive Haemophilus influenzae F54 harboring V489G, M503R, R517H, V547I and N569S mutations in PBP3 by broth microdilution method
Haemophilus influenzae [24] = assay: Antibacterial activity against ROB-1 producing ICE- negative Haemophilus influenzae H23 by Etest method
Haemophilus influenzae [25] = assay: Antibacterial activity against ROB-1 producing ICE- negative Haemophilus influenzae F50 by broth microdilution method
Haemophilus influenzae [26] = assay: Antibacterial activity against ROB-1 and TEM-1 producing ICE- positive Haemophilus influenzae F49 harboring D350N, V547I and N569S mutations in PBP3 by Etest method

## N[C@@H](C(=O)N[C@@H]1C(=O)N2C(C(=O)O)=C(Cl)CS[C@H]12)c1ccccc1 [CEFACLOR ANHYDROUS]
Haemophilus influenzae [1]
  MIC: 32 µg/mL (≈ 87 µM)
Haemophilus influenzae [2]
  MIC: 2 µg/mL (≈ 5.44 µM)
Haemophilus influenzae [3]
  MIC: 4 µg/mL (≈ 10.9 µM)
Haemophilus influenzae [4]
  MIC: 32 µg/mL (≈ 87 µM)
Haemophilus influenzae [5]
  MIC: 16 µg/mL (≈ 43.5 µM)
Haemophilus influenzae [6]
  MIC: 4 µg/mL (≈ 10.9 µM)
Haemophilus influenzae [7]
  MIC: 24 µg/mL (≈ 65.3 µM)
Haemophilus influenzae [8]
  MIC: 1 µg/mL (≈ 2.72 µM)
Haemophilus influenzae [9]
  MIC: 4 µg/mL (≈ 10.9 µM)
Haemophilus influenzae [10]
  MIC: 6 µg/mL (≈ 16.3 µM)
Haemophilus influenzae [11]
  MIC: 32 µg/mL (≈ 87 µM)
Haemophilus influenzae [12]
  MIC: 16 µg/mL (≈ 43.5 µM)
Haemophilus influenzae [13]
  MIC: 32 µg/mL (≈ 87 µM)
Haemophilus influenzae [14]
  MIC: 64 µg/mL (≈ 174 µM)
Haemophilus influenzae [15]
  MIC: 0.5 µg/mL (≈ 1.36 µM)
Haemophilus influenzae [16]
  MIC: 64 µg/mL (≈ 174 µM)
Haemophilus influenzae [17]
  MIC: 16 µg/mL (≈ 43.5 µM)
Haemophilus influenzae [18]
  MIC: 4 µg/mL (≈ 10.9 µM)
Haemophilus influenzae [19]
  MIC: 16 µg/mL (≈ 43.5 µM)
Haemophilus influenzae [20]
  MIC: 32 µg/mL (≈ 87 µM)
Haemophilus influenzae [21]
  MIC: 6 µg/mL (≈ 16.3 µM)
Haemophilus influenzae [22]
  MIC: 6 µg/mL (≈ 16.3 µM)
Haemophilus influenzae [23]
  MIC: 64 µg/mL (≈ 174 µM)
Haemophilus influenzae [24]
  MIC: 2 µg/mL (≈ 5.44 µM)
Haemophilus influenzae [25]
  MIC: 16 µg/mL (≈ 43.5 µM)
Haemophilus influenzae [26]
  MIC: 16 µg/mL (≈ 43.5 µM)
